Source: article PMC7686382, “Bioassay-based Corchorus capsularis L. leaf-derived β-sitosterol exerts antileishmanial effects against Leishmania donovani by targeting trypanothione reductase” (Scientific Reports, 2020)

Target: T1, Leishmania donovani trypanothione reductase (LdTryR) (Leishmania donovani, UniProt P39050)
T1 construct: gene TPR; recombinant LdTryR
Assay: spectrophotometric NADPH oxidation assay ([…] nm) on recombinant enzyme, Lineweaver-Burk kinetics
Type: biochemical

T1 sequence (P39050 whole entry): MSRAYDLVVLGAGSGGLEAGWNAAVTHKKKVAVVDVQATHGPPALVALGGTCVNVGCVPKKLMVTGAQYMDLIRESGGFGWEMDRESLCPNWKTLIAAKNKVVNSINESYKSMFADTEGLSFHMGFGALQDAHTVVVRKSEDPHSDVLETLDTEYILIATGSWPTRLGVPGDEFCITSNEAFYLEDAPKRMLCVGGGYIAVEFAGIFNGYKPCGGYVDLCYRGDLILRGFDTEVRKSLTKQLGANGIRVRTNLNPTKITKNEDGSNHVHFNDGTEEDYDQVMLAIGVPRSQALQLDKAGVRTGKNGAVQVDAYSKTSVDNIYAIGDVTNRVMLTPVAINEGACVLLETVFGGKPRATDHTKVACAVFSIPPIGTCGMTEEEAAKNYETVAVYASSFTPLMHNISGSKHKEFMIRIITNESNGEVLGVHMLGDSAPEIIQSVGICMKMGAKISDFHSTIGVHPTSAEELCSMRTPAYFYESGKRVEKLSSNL

In the case of `CC[C@H](CC[C@@H](C)[C@H]1CC[C@H]2[C@@H]3CC=C4C[C@@H](O)CC[C@]4(C)[C@H]3CC[C@]12C)C(C)C` [β-sitosterolCCL, β-sitosterol], the Ki is reported as 8.43 µM.
